Tested on: ALAS
Assay: not given
Details: background, reference [3]; read-out: IC50 of known ALAS inhibitor; cited from earlier work

Structure (SMILES) | IC50 [µM]
NC(C(=O)O)C(=O)O [aminomalonate] | 7

Molecular target: 5-aminolevulinate synthase (ALAS) (Mus musculus (Mouse), UniProt P08680)
Assay: ALAS activity
Type: biochemical
Details: not given
Protocol: ALAS activity was determined according the article, Stojanovski, B. M., Breydo, L., Hunter, G. A., Uversky, V. N, Ferreira G. C. (2014) Biochim. Biophys. Acta 1844, 2145-2154, which is hereby incorporated by reference in its entirety.

Chain of 5-aminolevulinate synthase (ALAS) (P08680 50-587): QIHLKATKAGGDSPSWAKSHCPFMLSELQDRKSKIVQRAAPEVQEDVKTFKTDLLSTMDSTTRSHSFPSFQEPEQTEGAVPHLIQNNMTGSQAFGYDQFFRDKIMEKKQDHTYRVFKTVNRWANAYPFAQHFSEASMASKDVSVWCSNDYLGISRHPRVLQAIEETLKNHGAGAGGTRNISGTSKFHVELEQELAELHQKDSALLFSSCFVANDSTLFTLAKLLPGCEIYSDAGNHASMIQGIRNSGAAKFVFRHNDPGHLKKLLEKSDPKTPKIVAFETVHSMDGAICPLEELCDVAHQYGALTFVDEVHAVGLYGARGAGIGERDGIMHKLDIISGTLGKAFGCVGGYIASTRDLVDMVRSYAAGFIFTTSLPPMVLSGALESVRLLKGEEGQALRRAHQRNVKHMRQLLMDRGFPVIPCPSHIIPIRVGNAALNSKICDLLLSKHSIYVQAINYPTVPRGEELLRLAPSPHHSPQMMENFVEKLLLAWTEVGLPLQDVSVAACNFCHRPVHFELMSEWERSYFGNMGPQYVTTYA

Structure (SMILES) | IC50 [µM]
CC1(C)CCN(c2ccc(C(=O)NS(=O)(=O)c3ccc(CN(CCSc4ccccc4)Cc4ccc(S(N)(=O)=O)cc4)cc3)cc2)CC1 [SZ10TA2] | 43 ± 5.8
Cn1cc(C(=O)C2CCCCC2)c2cc(C(=O)NS(=O)(=O)c3ccc(CN(CCSc4ccccc4)Cc4ccc(S(N)(=O)=O)cc4)cc3)ccc21 [SZ10TA40] | 8.6 ± 0.9
Cn1cc(C(=O)C2CCCCC2)c2cc(C(=O)NS(=O)(=O)c3ccc(-c4ccc(C(C)(C)C)cc4)cc3)ccc21 [SZ11TA40] | 19.3 ± 2.7
O=C(NS(=O)(=O)c1ccc(CNc2cccc([N+](=O)[O-])c2)cc1)c1ccc(CN2C(=O)C(c3ccc(F)cc3F)=C(c3ccc(F)cc3F)C2=O)cc1 [SZ12TA42] | 8.6 ± 0.9
COc1cccc(CN(CCSc2ccccc2)Cc2ccc(S(=O)(=O)NC(=O)c3cccc4ccccc34)cc2)c1 [SZ17TA7] | 50 ± 6.1
COc1ccc(Cc2ccc(C(=O)NS(=O)(=O)c3ccc(-c4ccc(Oc5ccccc5)cc4)cc3)cc2)c(OC)c1OC [SZ35TA24] | 31.4 ± 1.8

Reference: patent publication US11479532B2, “5-aminolevulinate synthase inhibitors and methods of use thereof” (UNIVERSITY OF SOUTH FLORIDA, priority 2017, dated 2022)
